The data set is described as follows: RP, Thermo Scientific Acclaim RSLC 120 C18, 100 × 2.1 mm, 2.2 µm, 30 °C, 0.2 mL/min, estimated dead time 1.1 min; A: 90% water + 10% methanol + 0.01% formic acid + 5 mM ammonium formate, pH 3.61; B: methanol + 0.01% formic acid + 5 mM ammonium formate, pH 3.61; gradient (min/%B) 0/1 1/1 2/39 13/99.9 15/99.9 15.1/1 20.1/1. The following applies: stereoisomer not certain.
As for `NC(=O)c1c(Cl)c(Cl)cc(C(=O)O)c1Cl`, the LC retention time was 3.88 min.
As for `CC12CCC3c4ccc(O)c(O)c4CCC3C1CCC2=O` (configuration not stated), the LC retention time is 8.69 min.
On to `CC12CCC3c4cc(O)c(O)cc4CCC3C1CCC2=O` (configuration not stated), for which the LC retention time was 8.56 min.
Take `CC12CCC3c4ccc(O)cc4CCC3C1CCC2O` (configuration not stated): the LC retention time was 12 min.
Take `Cc1cccc(C)c1NC(=O)CS(=O)(=O)O`: the LC retention time is 9.34 min.
As for `CCc1c(C(=O)NCCc2ccc(N3CCCCC3)cc2)[nH]c2ccc(Cl)cc12`, the LC retention time was 12.7 min.
With `CCc1cccc(C)c1N(C(=O)C(=O)O)C(C)C(=O)O` (configuration not stated) the figure was 6.84 min; with `CCc1cccc(C)c1N(C(=O)CS(=O)(=O)O)C(C)C(=O)O` (configuration not stated), 10.9 min.
Take `CCc1cccc(C)c1NC(=O)CS(=O)(=O)O`: the LC retention time was 5.24 min.
Consider `CCCN(CCOc1c(Cl)cc(Cl)cc1Cl)C(=O)NC=O`, for which the LC retention time was 11.2 min.
On to `CCCNCCOc1c(Cl)cc(Cl)cc1Cl`, for which the LC retention time is 6.99 min.
As to `COC(=O)CSP(=S)(OC)OC`, the LC retention time was 7.16 min.
For `CCOP(=O)(OCC)OC(=CCl)c1ccc(Cl)cc1Cl` (mixture of isomers) [Chlorfenvinphos (E/Z) Peak 1 (Main)], the LC retention time is 11 min.
On to `O=c1cn[nH][nH]1` [1 2 3-triazole-5-OH (1.2.3)], for which the LC retention time is 5.99 min.
With `c1nc[nH]n1` [1,2,4-Triazole], the LC retention time was 1.56 min.
As to `O=c1[nH]sc2ccccc12` [1,2-Benzisothiazolinone], the LC retention time was 5.14 min.
Next, `Cn1cnc2c1c(=O)n(CCCC(=O)O)c(=O)n2C` [1-(3-carboxypropyl)-3,7-dimethylxanthine]: 4.48 min; `COc1cc(CCN)c(OC)cc1C` [2 C-D]: 5.34 min; `CCCc1cc(OC)c(CCN)cc1OC` [2 C-P]: 7.46 min.
Take `Nc1ccc(S(=O)(=O)O)c(N)c1` [2,4-Diaminobenzenesulfonic acid]: the LC retention time is 1.36 min.
With `COc1ccc(OC)c(CC(C)N)c1` (configuration not stated) [2-5-DMA] the figure was 4.78 min; with `O=Cc1ccccc1Nc1ccccc1Cl` [2-(2-(Chlorophenyl)amino)benzaldehyde], 11.4 min.
For `c1ccc2sc(N3CCOCC3)nc2c1` [2-(4-Morpholinyl)benzothiazole], the LC retention time was 8.5 min.
Regarding `C=CC(=O)NC(C)(C)CS(=O)(=O)O` [2-Acrylamido-2-methylpropane sulfonic acid (AMPS)], the LC retention time is 2.8 min.
On to `O=S(=O)(O)c1nc2ccccc2s1` [2-Benzothiazolesulfonic acid], for which the LC retention time is 4.48 min.
As to `COc1cc(CCNCc2ccccc2OC)c(OC)cc1Cl` [2-C-C-NBoMe], the LC retention time was 7.34 min.
For the compound `NC(=O)N1c2ccccc2C=Cc2cc(O)ccc21` [2-Hydroxycarbamazepine], the LC retention time is 6.03 min.
With `COc1nc(C)nc(N)n1` [2-Methyl-4-amino-6-methoxy-s-triazine], the LC retention time is 3.71 min.
Consider `c1ccc2sc(SN3CCOCC3)nc2c1` [2-Morpholinothiobenzothiazole], for which the LC retention time was 9.85 min.
In the case of `O=S(=O)(O)c1ccc2ccccc2c1` [2-Naphthalin sulfonic acid], the LC retention time is 5.44 min.
On to `CCCCCCCCn1sccc1=O` [2-Octyl-4-isothiazolin-3-one], for which the LC retention time is 10.3 min.
`CCN(CC)C(=O)C1C=C2c3cccc4c3C(O)(CC2N(C)C1)C(=O)N4` (configuration not stated) [2-Oxo-3-hydroxy-LSD]: the LC retention time was 4.23 min.
Take `CCCCOC(=O)COc1ccc(Cl)cc1Cl` [2.4-D-butylester]: the LC retention time was 11.9 min.
With `COC(=O)COc1ccc(Cl)cc1Cl` [2.4-D-methylester] the figure was 9.61 min.
For `COC(=O)CCCOc1ccc(Cl)cc1Cl` [2.4-DB-methylester], the LC retention time is 11.3 min.
Next, `O=C(O)CCCOc1ccc(Cl)cc1Cl` [2.4-DB]: 10 min; `COC(=O)COc1cc(Cl)c(Cl)cc1Cl` [2.4.5-T-methylester]: 10.8 min.
With `COc1cc(CCN)c(OC)cc1Br` [2C-B] the figure was 5.56 min; with `COc1cc(CCN)c(OC)cc1Cl` [2C-C], 5.28 min.
Take `CCc1cc(OC)c(CCN)cc1OC` [2C-E]: the LC retention time is 6.48 min.
Regarding `COc1ccc(OC)c(CCN)c1` [2C-H], the LC retention time is 4.43 min.
Take `COc1cc(CCN)c(OC)cc1I` [2C-I]: the LC retention time was 6.06 min.
Take `COc1cc(SC(C)C)c(OC)cc1CCN` [2C-T-4]: the LC retention time is 6.69 min.
For `CCCSc1cc(OC)c(CCN)cc1OC` [2C-T-7], the LC retention time was 6.98 min.
Consider `CCSc1cc(OC)c(CCN)cc1OC` [2CT-2], for which the LC retention time was 5.88 min.
As for `O=C1CC2(CCCCC2)CN1` [3,3-pentamethylene-4-butyrolactam], the LC retention time is 6.64 min.
As for `CNC(=O)Nc1ccc(Cl)c(Cl)c1` [3-4-(dichlorophenyl)-3-methyl urea], the LC retention time was 8.51 min.
Consider `NC(=O)Nc1ccc(Cl)c(Cl)c1` [3-4-(dichlorophenyl)-urea], for which the LC retention time was 7.99 min.
Regarding `CCCCNC(=O)OCC#CI` [3-Iodopropynyl butylcarbamate], the LC retention time is 8.05 min.
For `O=c1[nH]c(Cl)c(Cl)cc1Cl` [3.5.6-Trichloro-2-pyridinol], the LC retention time is 8.96 min.
As for `CCCCCCCCn1sc(Cl)c(Cl)c1=O` [4-5-Dichloro-2-n-octyl-isothiazol-3(2H)-on (DCOIT)], the LC retention time was 12.5 min.
For `CC(=O)Oc1ccc2c(CCN(C(C)C)C(C)C)c[nH]c2c1` [4-AcO-DIPT], the LC retention time is 4.88 min.
In the case of `NC(=O)c1ccc(N)cc1` [4-Aminobenzamide], the LC retention time is 2.37 min.
With `CC12CC(O)C3C(CCC4=CC(=O)CCC43C)C1CCC2=O` (stereo not drawn) [4-Androsten-11beta-ol-3,17-dione] the figure was 8.23 min; with `O=C(O)CCC(=O)c1ccc(F)cc1` [4-Fluorobenzoylpropionic acid], 6.09 min.
Consider `Cc1c(C=O)c(=O)n(-c2ccccc2)n1C` [4-Formyl-antipyrine], for which the LC retention time is 3.98 min.
Consider `CCC(=C(c1ccc(O)cc1)c1ccc(OCCN(C)C)cc1)c1ccccc1` [4-Hydroxytamoxifen], for which the LC retention time was 9.1 min.
Take `COc1ccc(N)cc1N` [4-Methoxy-1.3-phenylenediamine]: the LC retention time is 2.37 min.
In the case of `CC(=O)Nc1ccc(N)cc1` [4`-Aminoacetanilide], the LC retention time was 2.27 min.
Turning to `CC(N)Cc1ccc2[nH]ccc2c1` (configuration not stated) [5-(2-Aminopropyl)indole (5-API)], the LC retention time was 4.07 min.
For `CC(N)Cc1ccc2occc2c1` (configuration not stated) [5-(2-aminopropyl)benzofuran (5-APB)], the LC retention time was 4.79 min.
In the case of `Nc1cccc2cc(S(=O)(=O)O)ccc12` [5-Aminonaphthalene-2-sulfonic acid], the LC retention time was 3.27 min.
`c1ccc2c(c1)[nH]c1ccncc12` [5-Carboline]: the LC retention time was 8.7 min.
As for `O=C(O)Cc1c[nH]c2ccc(O)cc12` [5-Hydroxyindole-3-acetic acid], the LC retention time was 3.93 min.
For `NC1Cc2ccc(I)cc2C1` (configuration not stated) [5-Iodo-2-aminoindane (5-IAI)], the LC retention time was 5.87 min.
Consider `O=C(Nc1cccc2ccccc12)c1nn(CCCCCF)c2ccccc12` [5-fluoro MN-18], for which the LC retention time is 11.8 min.
Turning to `S=c1nc[nH]c2nc[nH]c12` [6-Mercaptopurine], the LC retention time was 2.62 min.
Regarding `CC12CCC(=O)C=C1C(O)CC1C2C(O)CC2(C)C1CCC2(O)C(=O)CO` (stereo not drawn) [6-beta-Hydroxycortisol], the LC retention time was 4.42 min.
For `CN(Cc1nc2c(N)nc(N)nc2[nH]c1=O)c1ccc(C(=O)NC(CCC(=O)O)C(=O)O)cc1` (configuration not stated) [7-Hydroxymethotrexat], the LC retention time is 4.69 min.
In the case of `CC12CCC(=O)C=C1CCC1C2C(=O)CC2(C)C(O)CCC12` (configuration not stated) [11-Ketotestosterone], the LC retention time was 7.9 min.
Turning to `CC(=O)C1(O)CCC2C3CCC4=CC(=O)CCC4(C)C3CCC21C` (stereo not drawn) [17alpha-Hydroxyprogesterone], the LC retention time is 10 min.
With `COc1cc(CCNCc2ccccc2OC)c(OC)cc1I` [25I-NBoMe], the LC retention time is 8.03 min.
In the case of `CC12CCC3C(CCC4=CC(=O)CCC43C)C1CCC2=O` (configuration not stated) [A4 (4-androsten-3 17-dione)], the LC retention time was 9.36 min.
For the compound `CC1(C)C(C(=O)c2cn(CCN3CCOCC3)c3ccccc23)C1(C)C` [A-796.260], the LC retention time was 10.7 min.
Consider `CC1(C)C(C(=O)c2cn(CC3CCOCC3)c3ccccc23)C1(C)C` [A-834.735], for which the LC retention time is 11.4 min.
Next, `CN1CCCCC1Cn1cc(C(=O)C2C(C)(C)C2(C)C)c2ccccc21` (configuration not stated) [AB-005]: 8.81 min.
For the compound `CC(C)C(NC(=O)c1nn(CC2CCCCC2)c2ccccc12)C(N)=O` (configuration not stated) [AB-CHMINACA], the LC retention time was 11.3 min.
Next, `CC(C)C(NC(=O)c1nn(Cc2ccc(F)cc2)c2ccccc12)C(N)=O` (configuration not stated) [AB-FUBINACA]: 9.59 min; `CC(C)C(NC(=O)c1nn(CCCCCCl)c2ccccc12)C(N)=O` (configuration not stated) [AB-PINACA 5Cl]: 9.99 min.
As for `CC(C)C(NC(=O)c1nn(CCCCCF)c2ccccc12)C(N)=O` (configuration not stated) [AB-PINACA 5F], the LC retention time is 9.12 min.
For the compound `CCCCCn1nc(C(=O)NC(C(N)=O)C(C)C)c2ccccc21` (configuration not stated) [AB-PINACA], the LC retention time is 10.5 min.
Next, `CC(C)C(NC(=O)c1cn(CCCCCF)c2ccccc12)C(N)=O` (configuration not stated) [ABICA-5F]: 8.93 min.

The values are drawn from the RepoRT retention time repository (doi:10.1021/acs.analchem.2c02893).
